These results are taken from ChEMBL document CHEMBL3044807, “Synthesis and biological evaluation of new ozonides with improved plant growth regulatory activity” (2009).

Format in all cases: functional
In assay [1] the test system is Sorghum bicolor. In words: Phytotoxic activity against Sorghum bicolor assessed as root growth inhibition at 5.0 x 10^-4 mol/l measured 15 days after seed sowing under greenhouse trials (reference value: 0.0%). The conditions noted are these: 360 h.
Assay [2] has as its system Sorghum bicolor. Put plainly: Phytotoxic activity against Sorghum bicolor assessed as aerial part growth inhibition at 5.0 x 10^-4 mol/l measured 15 days after seed sowing under greenhouse trials (reference value: 0.0%). The conditions noted are these: 360 h.
Assay [3] has as its system Ipomoea grandifolia. In words: Phytotoxic activity against Ipomoea grandifolia assessed as root growth inhibition at 5.0 x 10^-4 mol/l measured 21 days after seed sowing under greenhouse trials (reference value: 0.0%). Conditions: 504 h.
Assay [4] has as its system Cucumis sativus. Put plainly: Phytotoxic activity against Cucumis sativus (cucumber) seedlings assessed as germination at 5x10'-4 mol/l at 28 +/-1 degC after 48 hr by acid-washed sand based radicle elongation assay (reference value: 100%).
The test system of assay [5] is Sorghum bicolor. Put plainly: Phytotoxic activity against Sorghum bicolor assessed as weight of aerial parts at 5.0 x 10^-4 mol/l measured 15 days after seed sowing under greenhouse trials (reference value: 19.0 mg).
The subject of assay [6] is Cucumis sativus. Put plainly: Phytotoxic activity against Cucumis sativus (cucumber) assessed as weight of aerial parts at 5.0 x 10^-4 mol/l measured 15 days after seed sowing under greenhouse trials (reference value: 47.0 mg).
In assay [7] the test system is Ipomoea grandifolia. Put plainly: Phytotoxic activity against Ipomoea grandifolia assessed as weight of aerial parts at 5.0 x 10^-4 mol/l measured 21 days after seed sowing under greenhouse trials (reference value: 17.8 mg).
Assay [8] has as its system Urochloa decumbens. In words: Phytotoxic activity against Urochloa decumbens assessed as weight of aerial parts at 5.0 x 10^-4 mol/l measured 21 days after seed sowing under greenhouse trials (reference value: 22.0 mg).
For assay [9], the system named is Urochloa decumbens. Put plainly: Phytotoxic activity against Urochloa decumbens assessed as weight of root at 5.0 x 10^-4 mol/l measured 21 days after seed sowing under greenhouse trials (reference value: 21.2 mg).
Assay [10] relates to Urochloa decumbens. Put plainly: Phytotoxic activity against Urochloa decumbens assessed as aerial part growth inhibition at 5.0 x 10^-4 mol/l measured 21 days after seed sowing under greenhouse trials (reference value: 0.0%). The conditions noted are these: 504 h.
Assay [11] deals with Sorghum bicolor. Put plainly: Phytotoxic activity against Sorghum bicolor seedlings assessed as radicle length at 5x10'-4 mol/l at 28 +/-1 degC after 48 hr by acid-washed sand based radicle elongation assay (reference value: 5.1 cm).
Assay [12] relates to Cucumis sativus. Put plainly: Phytotoxic activity against Cucumis sativus (cucumber) seedlings assessed as radicle length at 5x10'-4 mol/l at 28 +/-1 degC after 48 hr by acid-washed sand based radicle elongation assay (reference value: 4.8 cm).
Assay [13] concerns Cucumis sativus. Put plainly: Phytotoxic activity against Cucumis sativus (cucumber) assessed as weight of roots at 5.0 x 10^-4 mol/l measured 15 days after seed sowing under greenhouse trials (reference value: 31.0 mg).
The test system of assay [14] is Cucumis sativus. In words: Phytotoxic activity against Cucumis sativus (cucumber) seedlings assessed as inhibition of radicle growth at 5x10'-4 mol/l at 28 +/-1 degC after 48 hr by acid-washed sand based radicle elongation assay (reference value: 0.0%).
The test system of assay [15] is Sorghum bicolor. Put plainly: Phytotoxic activity against Sorghum bicolor seedlings assessed as germination at 5x10'-4 mol/l at 28 +/-1 degC after 48 hr by acid-washed sand based radicle elongation assay (reference value: 100%).
Assay [16] relates to Cucumis sativus. Put plainly: Phytotoxic activity against Cucumis sativus (cucumber) assessed as aerial part growth inhibition at 5.0 x 10^-4 mol/l measured 15 days after seed sowing under greenhouse trials (reference value: 0.0%). Conditions: 360 h.
In assay [17] the test system is Ipomoea grandifolia. Put plainly: Phytotoxic activity against Ipomoea grandifolia assessed as aerial part growth inhibition at 5.0 x 10^-4 mol/l measured 21 days after seed sowing under greenhouse trials (reference value: 0.0%). Conditions: 504 h.
Assay [18] deals with Ipomoea grandifolia. Put plainly: Phytotoxic activity against Ipomoea grandifolia assessed as weight of root at 5.0 x 10^-4 mol/l measured 21 days after seed sowing under greenhouse trials (reference value: 18.4 mg).
In assay [19] the test system is Cucumis sativus. In words: Phytotoxic activity against Cucumis sativus (cucumber) assessed as root growth inhibition at 5.0 x 10^-4 mol/l measured 15 days after seed sowing under greenhouse trials (reference value: 0.0%). Conditions: 360 h.
The subject of assay [20] is Urochloa decumbens. In words: Phytotoxic activity against Urochloa decumbens assessed as root growth inhibition at 5.0 x 10^-4 mol/l measured 21 days after seed sowing under greenhouse trials (reference value: 0.0%). The conditions noted are these: 504 h.
Assay [21] relates to Sorghum bicolor. In words: Phytotoxic activity against Sorghum bicolor assessed as weight of roots at 5.0 x 10^-4 mol/l measured 15 days after seed sowing under greenhouse trials (reference value: 14.0 mg).
The subject of assay [22] is Sorghum bicolor. Put plainly: Phytotoxic activity against Sorghum bicolor seedlings assessed as inhibition of radicle growth at 5x10'-4 mol/l at 28 +/-1 degC after 48 hr by acid-washed sand based radicle elongation assay (reference value: 0.0%).

As for `CC[C@@H]1C(=O)[C@@H](CC)[C@@]23CC(C)CCC2=C(C)[C@H]1O3` (stereo not given in full), the inhibition at 500 µM was 9.3% in assay [1]; 28.1% in assay [2]; 85.3% in [3]; 75.3% in [10]; 62.9% in assay [14]; 34.6% in [16]. For the same compound, the inhibition at 500 µM in assay [17] came out at 61.8%; in [19], 79.7%; in [20], 85.5%; in assay [22], 68%. For the same compound, the germination % at 500 µM in assay [4] was determined as 96%; in assay [15], 93%. Moreover, the Activity in assay [5] is listed as 13.7 mg; in [6], 30.7 mg; in [7], 6.9 mg; in assay [8] it was 5.4 mg; in [9] it was 3.4 mg; in assay [11], 1.7 cm. For the same compound, the Activity amounted to 1.8 cm in assay [12], 6.3 mg in assay [13], 2.4 mg in assay [18] and 12.7 mg in assay [21].
Regarding `O=C1C2CCCCC1C1OC2C2OOC1O2`, the inhibition at 500 µM in assay [1] was 26.4%; in assay [2], 45.1%; in [3], 53.6%; in assay [10], 44.1%; in assay [14] it was 68.5%; in [16], 27.5%. For the same compound, the inhibition at 500 µM came out at 46.5% in assay [17], 77.8% in assay [19], 60.2% in assay [20] and 59.7% in assay [22]. Further, the figures for the germination % at 500 µM in assay [4] and in [15] were 100% and 96%, respectively. Besides, the Activity in assay [5] stood at 10.4 mg; in assay [6] it was 34.1 mg; in assay [7], 9.6 mg; in assay [8] it was 12.3 mg; in [9], 8.3 mg; in [11], 2.1 cm. Also, the Activity was found to be 1.5 cm in assay [12], 6.9 mg in assay [13], 7.4 mg in [18] and 10.3 mg in assay [21].
With `CC(=O)[C@@]12C=C[C@H](O1)[C@H]1CCCC[C@H]2C1=O`, the inhibition at 500 µM worked out at 23.2% in [1]; 6% in assay [2]; 46.2% in [3]; 66.5% in assay [10]; 82.1% in assay [14]; 57.4% in assay [16]. Also, the inhibition at 500 µM amounted to 39.4% in [17], 84.1% in assay [19], 78.4% in assay [20] and 88.5% in assay [22]. In addition, the germination % at 500 µM in assay [4] came to 86%; in assay [15], 96%. The Activity in [5] is 17.8 mg; in assay [6], 20 mg; in assay [7], 10.9 mg; in [8] it was 7.4 mg; in [9], 4.5 mg; in assay [11], 0.6 cm. For the same compound, the Activity in assay [12] came to 0.9 cm; in assay [13], 4.9 mg; in [18], 8.6 mg; in assay [21], 10.7 mg.
For `CCC12OC(C3OOC1O3)C1CCCCC2C1=O` (mixture of isomers), the inhibition at 500 µM amounted to 27.1% in [1]; 45.4% in [2]; 43% in assay [3]; 74.4% in assay [10]; 57.2% in [14]; 48% in assay [16]. Further, the inhibition at 500 µM was 47.7% in [17], 75.2% in assay [19], 77.9% in assay [20] and 52.5% in assay [22]. Moreover, the values for the germination % at 500 µM in assay [4] and in [15] were 96% and 100%, respectively. Moreover, the Activity in [5] was 10.3 mg; in assay [6] it was 24.4 mg; in [7], 9.4 mg; in assay [8], 5.7 mg; in assay [9] it was 4.6 mg; in [11], 2.4 cm. For the same compound, the Activity came to 2.1 cm in assay [12], 7.7 mg in [13], 9.1 mg in assay [18] and 10.2 mg in assay [21].
Regarding `CC12OC(C)(C3OOC1O3)C1CCCCC2C1=O` (mixture of isomers), the inhibition at 500 µM in assay [1] came to 18.2%; in assay [2] it was 53.9%; in assay [3] it was 64.6%; in assay [10], 79.7%; in [14], 69.1%; in [16] it was 43.8%. Moreover, the inhibition at 500 µM in assay [17] stood at 65.4%; in [19], 79.7%; in [20], 83%; in [22], 47.1%. The germination % at 500 µM in [4] and in [15] was 100% throughout. In addition, the Activity in assay [5] is on record as 8.8 mg; in assay [6], 26.4 mg; in [7], 6.2 mg; in assay [8] it was 4.4 mg; in assay [9] it was 3.6 mg; in assay [11] it was 2.7 cm. Besides, the Activity was 1.5 cm in [12], 6.3 mg in assay [13], 5.7 mg in assay [18] and 11.5 mg in [21].
